# Experimental data taken from patent US20200303198A1, “POLISHING COMPOSITION AND POLISHING METHOD” (FUJIMI INCORPORATED, priority 2019, published 2020).
# Test: Solubility of biocide in water
# Format: physicochemical
# Conditions: in words
smiles,measurement,value
O=C(OCc1ccccc1)c1ccc(O)cc1 [benzyl paraoxybenzoate],solubility in water,poor solubility in water
